The results in this text go back to PMC11992111 (Nature Communications, 2025).

Format in all cases: binding
The target in assay [1] is T1, AZG2 (Arabidopsis thaliana, UniProt Q84MA8).
T1 sequence (Q84MA8 1-530): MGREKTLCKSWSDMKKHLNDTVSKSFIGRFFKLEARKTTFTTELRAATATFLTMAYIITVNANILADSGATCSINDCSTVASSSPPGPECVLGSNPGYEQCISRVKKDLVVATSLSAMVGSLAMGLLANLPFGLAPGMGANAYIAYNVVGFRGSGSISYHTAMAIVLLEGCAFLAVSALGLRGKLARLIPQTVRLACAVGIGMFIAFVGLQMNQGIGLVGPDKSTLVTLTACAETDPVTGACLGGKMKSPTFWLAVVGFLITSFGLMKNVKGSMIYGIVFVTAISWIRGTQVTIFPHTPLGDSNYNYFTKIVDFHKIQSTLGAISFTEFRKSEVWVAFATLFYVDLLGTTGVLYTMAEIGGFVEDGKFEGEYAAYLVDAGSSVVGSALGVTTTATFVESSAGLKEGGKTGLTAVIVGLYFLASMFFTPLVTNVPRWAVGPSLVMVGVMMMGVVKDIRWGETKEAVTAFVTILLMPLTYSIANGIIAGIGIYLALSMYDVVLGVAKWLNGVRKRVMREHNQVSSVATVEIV
Description: ITC. For orientation: Isothermal titration calorimetry measures the heat released or taken up as one component is titrated into another.

The next assay concerns the target AZG1 (Arabidopsis thaliana, UniProt Q9SRK7). The experiment in a line: ITC at pH […].
Assay [2] addresses T1, AZG2. Description: ITC at pH […].

Broadly, the Kd is the free concentration of one partner at which half of the binding sites on the other are occupied at equilibrium, for simple one-to-one binding. A lower Kd goes with a tighter complex.

At AZG2 [1], `c1coc(CNc2ncnc3[nH]cnc23)c1` [kinetin] registered a Kd of 710 ± 90 nM. With `Nc1ncnc2nc[nH]c12` [adenine], the Kd on AZG1 was 620 ± 110 nM; on AZG2 [2], 770 ± 90 nM.

Consider `c1ccc(CNc2ncnc3nc[nH]c23)cc1` [BA, benzyladenine], for which, on AZG2 [1], the Kd was determined as 2090 ± 470 nM.

Consider `CC(C)=CCNc1ncnc2nc[nH]c12` [iP, N^6-(Δ^2-isopentenyl)adenine], for which the affinity at AZG2 [1], expressed as Kd, was 710 ± 80 nM.
